Biological target: SARS-CoV-2 exonuclease complex (nsp14 and nsp10) (Severe acute respiratory syndrome coronavirus 2, UniProt P0DTD1)
Assay: Exonuclease resistance of RNA terminated with nucleotide analogues, MALDI-TOF MS
Type: biochemical
Conditions: for cleavage of extended RNA after 5 min exonuclease treatment / cleavage of extended RNA after 30 min exonuclease treatment: RNA extended by SARS-CoV-2 RdRp (FIGS. 48, 49); for relative resistance to excision by the exonuclease: analogue at the 3′ terminus of RNA, compared with other 3′ termini

Substance	cleavage of extended RNA after 5 min exonuclease treatment	cleavage of extended RNA after 30 min exonuclease treatment	relative resistance to excision by the exonuclease	relative resistance to excision by the exonuclease (listed as 2′-O-Me-CTP)	cleavage of extended RNA after 5 min exonuclease treatment (listed as SFV)	cleavage of extended RNA after 30 min exonuclease treatment (listed as SFV)
UMP	substantial cleavage	completely disappears				
2′-O-methyl CMP			resistant to excision	much more full-length RNA remaining		
Sofosbuvir	minimal appearance of cleavage products	significant amount of the intact Sofosbuvir-RNA remaining	more protected from cleavage		some reduction in the height	still some SFV extended RNA remaining

Reference: US20230172961A1 (priority 2020, published 2023)
